The results in this text go back to patent US11584760B2, “Dithio ETP derivatives” (priority 2016, dated 2023).

Data set [1] relates to DU145 (human prostate cancer). Nature of the data set: in vitro cytotoxicity against DU145 cancer cell line. Type of data set: cell-based. The settings on record: DU145 cells; for in vitro cytotoxicity (activity against the cancer cell line): data shown in FIG. 2. The protocol: (§1) FIGS. 2A and 2B. In vitro cytotoxicity against two invasive cancer cell lines, DU145 (human prostate cancer) and A2058 (human melanoma) were determined for different analogs.
(§2) Four examples of compounds of structure II with R═—C(O)R or —C(O)OR′ were prepared as depicted in FIG. 2 and their in vitro cytotoxicity against two invasive cancer cell lines, DU145 (human prostate cancer) and A2058 (human melanoma) were determined.

In a further data set the test system is A2058 (human melanoma). The experiment in a line: in vitro cytotoxicity against A2058 cancer cell line. The settings on record: A2058 cells; for in vitro cytotoxicity (activity against the cancer cell line): data shown in FIG. 2. It is filed as cell-based. Here is the method: as §1, §2
The subject of data set [2] is Hut 78 cells (cutaneous T-cell lymphoma, CTCL). Nature of the data set: CTCL tumor model: Hut 78 cells injected subcutaneously into NSG mice. Type of data set: in vivo. The settings on record: 20 mg/kg orally (gavage), 3 consecutive days/week; treatment started at tumor size approx. 200 mm^3; vs vehicle. The protocol:
NSG (NOD. Cg-Prkdcscid II2rgtm1Wjl/SzJ) mice (5 to 7 weeks of age) were obtained from an-animal in-house breeding facility. The facility mice stock derived from mice obtained from Jackson Laboratory. All animal experiments were conducted in accordance with protocol approved by the City of Hope Beckman Research Institute IACUC.
CTCL tumor model: 3 million of Hut 78 cells in 100 μl (cells in PBS:Matrigel=1:1) injected subcutaneously.
The compound stock of 60 mg/ml was made in DMSO and diluted to 2 mg/ml in 30% Solutol. The compound was administered orally (by gavage) at 10 μl per gram of mice body weight in a dose of 20 mg/kg for 3 consecutive days/week.
100 μl of 3×10^6 Hut78 cells were injected subcutaneously into mice left flanks. The treatments were initiated when the tumor size reached approximately 200 mm^3. The compound or the vehicle alone were administered for 3 consecutive days/week.

With `CC(=O)S[C@@]1(C)C(=O)N2[C@@H](c3ccc4c(c3)OCO4)[C@@](C)(C#N)C[C@]2(SC(C)=O)C(=O)N1C` (relative stereo) [LEO-16-1833, Rel-S, S′-((3S,6S,7S,8aS)-6-(benzo[d][1,3]dioxol-5-yl)-7-cyano-2,3,7-trimethyl-1,4-dioxohexahydropyrrolo[1,2-c]pyrazine-3,8a(6H)-diyl) diethanethioate], the “activity compared with the corresponding ETP structure I (p=2)” value (in data set [1] (FIG. 2); in the data set with A2058 (human melanoma) (FIG. 2)) was “nearly identical” each time. Moreover, the “in vitro cytotoxicity (activity against the cancer cell line)” value (“in vitro cytotoxicity” for short) (in data set [1]; in the data set on A2058 (human melanoma)) was “good activity” in each case.
In the case of `CN1C(=O)[C@@]2(SC(=O)Cc3ccccc3)C[C@](C)(C#N)[C@H](c3ccc4c(c3)OCO4)N2C(=O)[C@]1(C)SC(=O)Cc1ccccc1` (relative stereo) [LEO-16-1835], the “in vitro cytotoxicity” value (in data set [1]; in the data set on A2058 (human melanoma)) was “good activity” in each case.
`CC(=O)S[C@@]1(C)C(=O)N2[C@@H](c3ccc4c(c3)OCO4)[C@@](C)(C#N)C[C@]2(SC(C)=O)C(=O)N1C` [LEO-16-1845, S,S′-((3S,6S,7S,8aS)-6-(benzo[d][1,3]dioxol-5-yl)-7-cyano-2,3,7-trimethyl-1,4-dioxohexahydropyrrolo[1,2-c]pyrazine-3,8a(6H)-diyl) diethanethioate]: the “inhibition of the tumor size” value in data set [2] is given as 86.5%.
On to `CN1C(=O)[C@@]2(SC(=O)c3ccccc3)C[C@](C)(C#N)[C@H](c3ccc4c(c3)OCO4)N2C(=O)[C@]1(C)SC(=O)c1ccccc1` (relative stereo) [LEO-16-1836], for which the “in vitro cytotoxicity” value (in data set [1]; in the data set on A2058 (human melanoma)) was “good activity” throughout.
